Assay results taken from ChEMBL document CHEMBL5584242, “Discovery of pyridazinone derivatives bearing tetrahydroimidazo[1,2-a]pyrazine scaffold as potent inhibitors of transient receptor potential canonical 5 to ameliorate hypertension-induced renal injury in rats” (Eur J Med Chem, 2024).

How the values were obtained:
in vitro [1] = details: mouse, liver microsomes, F
[2] = rat, microsomes
[3] = human, microsomes
in vitro [4] = details: human, liver microsomes
[5] = mouse, microsomes
in vitro [6] = details: rat, liver microsomes
in vitro [7] = details: mouse, liver microsomes
in vitro [8] = details: rat, liver microsomes, F
in vitro [9] = details: human, liver microsomes, F
[10] = Drug distribution in ICR mouse kidney at 10 mg/kg, po measured after 1 hr by LC-MS/MS analysis; assay type: ADME, organism-based; details: in vivo
[11] = Drug distribution in ICR mouse colon at 10 mg/kg, po measured after 1 hr by LC-MS/MS analysis; assay type: ADME, organism-based; details: in vivo
[12] = Drug distribution in ICR mouse spleen at 10 mg/kg, po measured after 1 hr by LC-MS/MS analysis; assay type: ADME, organism-based; details: in vivo
[13] = Half-life in ICR mouse at 10 mg/kg, po measured upto 24 hrs by LC-MS/MS analysis; assay type: ADME, organism-based; details: in vivo
[14] = Tmax in ICR mouse at 10 mg/kg, po measured upto 24 hrs by LC-MS/MS analysis; assay type: ADME, organism-based; details: in vivo
[15] = Drug distribution in ICR mouse heart at 10 mg/kg, po measured after 1 hr by LC-MS/MS analysis; assay type: ADME, organism-based; details: in vivo
[16] = Cmax in ICR mouse at 10 mg/kg, po measured upto 24 hrs by LC-MS/MS analysis; assay type: ADME, organism-based; details: in vivo
[17] = Drug distribution in ICR mouse lung at 10 mg/kg, po measured after 1 hr by LC-MS/MS analysis; assay type: ADME, organism-based; details: in vivo
[18] = Drug distribution in ICR mouse liver at 10 mg/kg, po measured after 1 hr by LC-MS/MS analysis; assay type: ADME, organism-based; details: in vivo
[19] = Drug distribution in ICR mouse brain at 10 mg/kg, po measured after 1 hr by LC-MS/MS analysis; assay type: ADME, organism-based; details: in vivo
[20] = human, microsomes; remark: listed apart in the source
[21] = rat, microsomes; remark: listed apart in the source
[22] = mouse, microsomes; remark: listed apart in the source

Q: For `COC(c1ccc(F)cc1C(F)(F)F)c1cnc2n1CCN(c1cn[nH]c(=O)c1Cl)C2` (centres undefined), which Fh (in vitro [1]) is on record?
A: 45%

Q: And the CLH [2]?
A: 60.5 mL/min/g

Q: And the CLH [3]?
A: 50.6 mL/min/g

Q: What about the half-life (in vitro [4]) of the same compound?
A: 41.5 min

Q: What about the CLH [5] of the same compound?
A: 54.2 mL/min/g

Q: And the half-life (in vitro [6])?
A: 34.7 min

Q: What about the half-life (in vitro [7]) of the same compound?
A: 38.7 min

Q: And the Fh (in vitro [8])?
A: 42.3%

Q: And the Fh (in vitro [9])?
A: 27.9%

Q: Which results are given for `COC(c1ccc(F)cc1Cl)c1cnc2n1CCN(c1cn[nH]c(=O)c1Cl)C2` (stereo in doubt; 12)?
A: Fh (in vitro [1]): 49.7%; CLH [2]: 97.3 mL/min/g; CLH [3]: 17.7 mL/min/g; Drug uptake [10]: Active; Drug uptake [11]: Active; half-life (in vitro [4]; t1/2): 119 min; Drug uptake [12]: Active; half-life [13]: 118 min; Tmax [14]: 60 min; CLH [5]: 45 mL/min/g; Drug uptake [15]: Active; Cmax [16]: 1150 ng/mL; half-life (in vitro [6]; t1/2): 21.6 min; Drug uptake [17]: Active; half-life (in vitro [7]; t1/2): 46.7 min; Drug uptake [18]: Active; Fh (in vitro [8]): 31.4%; Fh (in vitro [9]): 52.5%; Drug uptake [19]: Not Active

Q: With `COC(c1ccc(F)cc1Cl)c1cnc2n1CCN(c1cn[nH]c(=O)c1Cl)C2` (stereo in doubt; 12-2) as the compound, how does the CLH [2] read?
A: 142 mL/min/g

Q: And the CLH [3]?
A: 17.5 mL/min/g

Q: What about the t1/2 [20] of the same compound?
A: 120 min

Q: What about the t1/2 [21] of the same compound?
A: 14.8 min

Q: And the CLH [5]?
A: 41.8 mL/min/g

Q: And the t1/2 [22]?
A: 50.3 min
